Our source for the IC50 values is BindingDB's records for doi:10.1016/j.bmcl.2005.06.067 (Carlsson Research, 2005).

Where only a bound is given, the exact number is not on record here.

Assay [1] in a line: Inhibitory activity against 5-hydroxytryptamine 1D receptor in calf.
Test in assay [2]: as above
The source holds these as a separate data set.

Usually IC50 stands for the concentration at which inhibition is half-maximal. A low value points to greater potency in that assay. Regarding `CCc1[nH]c2ccc(OC)cc2c1CCN(C)C` [2-ethyl-5-methoxy-N,N-dimethyltryptamine], the midpoint of inhibition in assay [1], the IC50, lay at 1400 nM.

`COc1ccc2[nH]c(C)c(C3=CCNCC3)c2c1` [5-Methoxy-2-methyl-3-(1,2,3,6-tetrahydro-pyridin-4-yl)-1H-indole] had an IC50 in assay [2] of more than 1000 nM.
